Measurements: US9034398B2, “Traditional Chinese drug comprising Danshen extracts and Sanqi extracts and use thereof” (TASLY Pharmaceutical Group Co., LTD., priority 2009, dated 2015)

Tests used:
rat myocardial I/R model = test: Heart blood flow volume by laser Doppler perfusion imaging (LDPI); format: in vivo; details: for inhibitory effect on the decrease of the heart blood flow volume after I/R / heart blood flow volume regained compared to I/R group (LDPI images): 5 mg/kg BW/h intravenous drip; for inhibitory effect on the decrease of the heart blood flow volume after I/R: FIG. 5A; for heart blood flow volume regained compared to I/R group (LDPI images): at 30 min and 60 min after reperfusion, FIG. 4A
Procedure: The rats were anesthetized by intramuscularly injecting 20 wt % urethane (1.25 g/kg) and fixed in the supine position. Neck skin was incised and anterior cervical muscles were separated to expose the trachea. Tracheal intubation was performed. Another end of the intubation was attached to a Small Animal Ventilator (ALC-V8, Shanghai Aoteshai Biology Science and Technology Limited Company, Shanghai, China) so as to carry out pressure breathing under the following conditions: a respiratory ratio of 1:1, a respiratory frequency of 75 times/min and a tidal volume of 12 mL/kg. The rectal temperature, measured with YSI REF 401 (Yellow Spring, Ohio, USA), was maintained at 37 37.5° C. by using a thermal blanket. The chest was sterilized and opened at the intercostal space between 2nd 4th ribs near the left and right sternal border to expose the heart. The 3⁄8 curved needle threaded with 3-0 suture was used to pass through the site at 1 2 mm below the juncture of the pulmonary artery cone and the left atrial appendage. The suture was ligated. A polyethylene tubule was placed between the silk suture and myocardial tissue, the silk suture was […] to cause ischemia. Ligature was released 30 min later to establish an I/R model. Danshensu+I/R group (DLA+I/R group): a Danshensu aqueous solution (in normal saline, 1.25 mg/ml) was administrated at a dosage of 5 mg/kg BW/h by intravenous drip 20 min before the experiment and continued until the end of the entire experiment. Notoginsenoside R1+I/R group (R1+I/R group): a Notoginsenoside R1 aqueous solution (in normal saline, 1.25 mg/ml) was administrated at a dosage of 5 mg/kg BW/h by intravenous drip 20 min before the experiment and continued until the end of the entire experiment. Danshensu:R1(4:1)+I/R group (DR(4:1)+I/R group): an aqueous solution of Danshensu and Notoginsenoside R1 at a weight ratio of 4:1, dissolved in normal saline (1.25 mg/ml, namely, in the solution, the concentration of Danshensu is 1 mg/ml and the concentration of Notoginsenoside R1 is 0.25 mg/ml), was administrated at a dosage of 5 mg/kg BW/h (namely, in the total dosage, the dosage of Danshensu is 4 mg/kg BW/h and the dosage of Notoginsenoside R1 is 1 mg/kg BW/h) by intravenous drip 20 min before the experiment and continued until the end of the entire experiment. Danshensu:R1 (1:1)+I/R group (DR(1:1)+IR group): an aqueous solution of Danshensu and Notoginsenoside R1 at a weight ratio of 1:1, dissolved in normal saline (1.25 mg/ml, namely, in the solution, the concentration of Danshensu is 0.625 mg/ml and the concentration of Notoginsenoside R1 is 0.625 mg/ml), was administrated at a dosage of 5 mg/kg BW/h (namely, in the total dosage, the dosage of Danshensu is 2.5 mg/kg BW/h and the dosage of Notoginsenoside R1 is 2.5 mg/kg BW/h) by intravenous drip 20 min before the experiment and continued until the end of the entire experiment. […] Blood flow volumes on the surface of heart before ischemia, 5 min, 30 min after ischemia, and 5 min, 30 min, 60 min after reperfusion had been recorded by a computer-aided laser Doppler perfusion imager (LDPI) (PeriScan PIM3, […], Sweden). Images were measured and the data were evaluated with […] software. Change rate of blood flow volume of the heart was calculated by taking the blood flow volume before I/R as a baseline.

[1] = tested on: rat's mesenteric venule walls; details: prior researches; rat mesentery, I/R; cited from earlier work
rat's liver = details: previous researches, cited from earlier work

SMILES | inhibitory effect on the decrease of the heart blood flow volume after I/R (rat myocardial I/R model; at 5 min after reperfusion) | heart blood flow volume regained compared to I/R group (LDPI images) (rat myocardial I/R model) | amelioration of heart perfusion flow caused by I/R (summary) (rat myocardial I/R model; rats, summary statement of the description) | adhesion between leucocytes and venule walls [1] | expression of leucocytes adhesion molecules CD11b/CD18 [1] | leakage of plasma albumin [1] | leukocytes adhered to rat's liver caused by I/R (rat's liver) | microcirculation disorder of the liver (rat's liver; rat, I/R) | inhibitory effect on the decrease of the heart blood flow volume after I/R (rat myocardial I/R model; no time stated)
O=C(O)C(O)Cc1ccc(O)c(O)c1 (stereo not shown) [Danshensu, (3,4-dihydroxyphenyl)lactic acid] | significantly inhibitory effect | regained to some extent | transiently ameliorate | potential for inhibiting | potential for inhibiting | potential for inhibiting | – | – | –
CC(C)=CCC[C@](C)(O[C@@H]1O[C@H](CO)[C@@H](O)[C@H](O)[C@H]1O)[C@H]1CC[C@]2(C)[C@@H]1[C@H](O)C[C@@H]1[C@@]3(C)CC[C@H](O)C(C)(C)[C@@H]3[C@@H](O[C@@H]3O[C@H](CO)[C@@H](O)[C@H](O)[C@H]3O[C@@H]3OC[C@@H](O)[C@H](O)[C@H]3O)C[C@]12C [Notoginsenoside R1] | – | regained to some extent | – | – | – | – | can reduce | can ameliorate | has not been observed to have significantly inhibitory effect
